We go through 22 compounds from patent publication US20220226337A1 (Gilead Sciences, Inc., priority 2018, published 2022).

pEC50: −log10 of the molar value.

For the experiment, the target named is T1, α4β7 integrin interaction with MadCAM-1 (RPMI8866 cells) (Homo sapiens, UniProt P13612+P26010).
T1 construct: α4β7 integrin expressing cells; endogenous in cells; host or cells: RPMI8866 cells
T1 sequence (P13612 34-1032): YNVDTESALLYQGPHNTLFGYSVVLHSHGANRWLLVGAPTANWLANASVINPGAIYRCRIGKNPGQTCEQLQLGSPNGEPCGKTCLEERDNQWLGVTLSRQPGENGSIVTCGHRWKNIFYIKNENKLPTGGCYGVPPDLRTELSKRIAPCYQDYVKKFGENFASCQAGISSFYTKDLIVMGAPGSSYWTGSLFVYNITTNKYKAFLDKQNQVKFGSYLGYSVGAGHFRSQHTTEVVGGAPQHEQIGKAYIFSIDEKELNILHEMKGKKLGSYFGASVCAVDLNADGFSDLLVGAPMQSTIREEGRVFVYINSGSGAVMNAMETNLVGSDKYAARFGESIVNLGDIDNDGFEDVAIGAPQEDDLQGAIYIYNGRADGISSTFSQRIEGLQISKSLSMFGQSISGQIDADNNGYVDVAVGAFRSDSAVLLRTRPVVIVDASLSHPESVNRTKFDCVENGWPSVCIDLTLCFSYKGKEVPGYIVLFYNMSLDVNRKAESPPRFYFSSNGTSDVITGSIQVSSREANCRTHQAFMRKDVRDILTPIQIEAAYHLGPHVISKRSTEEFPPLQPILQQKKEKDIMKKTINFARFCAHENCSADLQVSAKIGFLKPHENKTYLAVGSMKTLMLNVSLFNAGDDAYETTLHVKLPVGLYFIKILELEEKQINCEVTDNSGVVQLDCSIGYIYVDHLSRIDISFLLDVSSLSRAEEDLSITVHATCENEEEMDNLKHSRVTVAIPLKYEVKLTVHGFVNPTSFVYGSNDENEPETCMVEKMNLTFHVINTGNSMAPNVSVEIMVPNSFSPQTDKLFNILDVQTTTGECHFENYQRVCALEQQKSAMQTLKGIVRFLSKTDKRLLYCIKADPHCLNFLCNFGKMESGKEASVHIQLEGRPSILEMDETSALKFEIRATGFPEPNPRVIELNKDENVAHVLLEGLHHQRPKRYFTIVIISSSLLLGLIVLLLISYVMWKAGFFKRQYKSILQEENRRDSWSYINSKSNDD
T1 sequence (P26010 20-798): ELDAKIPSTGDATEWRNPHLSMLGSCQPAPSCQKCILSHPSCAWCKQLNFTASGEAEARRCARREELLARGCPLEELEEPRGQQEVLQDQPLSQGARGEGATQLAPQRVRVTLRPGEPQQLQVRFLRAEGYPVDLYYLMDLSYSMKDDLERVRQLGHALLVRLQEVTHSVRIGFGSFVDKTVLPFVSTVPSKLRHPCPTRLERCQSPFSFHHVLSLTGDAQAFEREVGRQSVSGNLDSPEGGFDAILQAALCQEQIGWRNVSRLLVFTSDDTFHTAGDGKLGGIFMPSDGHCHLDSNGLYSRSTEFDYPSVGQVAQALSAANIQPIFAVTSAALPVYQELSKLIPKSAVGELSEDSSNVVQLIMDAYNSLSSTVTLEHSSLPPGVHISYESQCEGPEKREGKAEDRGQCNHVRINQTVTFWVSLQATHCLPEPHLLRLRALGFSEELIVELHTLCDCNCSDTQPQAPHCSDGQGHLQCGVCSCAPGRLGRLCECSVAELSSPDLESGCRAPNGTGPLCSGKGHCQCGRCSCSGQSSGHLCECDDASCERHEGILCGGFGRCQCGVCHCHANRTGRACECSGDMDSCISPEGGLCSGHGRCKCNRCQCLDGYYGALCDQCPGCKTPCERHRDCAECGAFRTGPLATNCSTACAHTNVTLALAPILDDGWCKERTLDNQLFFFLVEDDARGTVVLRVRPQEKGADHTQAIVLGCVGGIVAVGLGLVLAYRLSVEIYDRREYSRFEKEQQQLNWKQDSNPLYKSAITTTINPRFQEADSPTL
Kind of experiment: α4β7 Integrin Cell Capture Assay. In kind it is cell-based. The conditions noted are these: capture of α4β7 integrin expressing RPMI8866 cells on recombinant MadCAM-1 extracellular domain-coated plate; 0.5 mM MnCl2. An outline of the steps: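 RPMI8866 cells (0.5×10^6 cells/mL in DMEM + 0.5% FBS + 0.5 mM MnCl2) preincubated with compound 1 h at 37 °C, then allowed to adhere 30 min at 37 °C to plates coated with MAdCAM-1 extracellular domain (1.0 μg/mL). Bound cells fixed with 2% glutaraldehyde, Hoechst-stained, imaged and counted; EC50 from cell count versus concentration.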
The pEC50 is −log10 of the EC50, conventionally taken in molar units. Turning to `Cn1c(=O)n(-c2ccc(C[C@H](NC(=O)c3c(F)cc(N4CCOC[C@@H]4C(F)(F)F)cc3F)C(=O)O)c3c2OCCC3)c(=O)c2ccncc21` [Example 124], the pEC50 was 10.19.

For `O=C(N[C@@H](Cc1ccc(-c2c(Cl)cc(F)cc2Cl)c2c1CCCO2)C(=O)O)c1c(F)cc(N[C@H](c2ccccc2)C(F)(F)F)cc1F` [Example 84, (S)-3-(8-(2,6-dichloro-4-fluorophenyl)chroman-5-yl)-2-(2,6-difluoro-4-(((R)-2,2,2-trifluoro-1-phenylethyl)amino)benzamido)propanoic acid], the pEC50 is 7.19.

For the compound `O=C(N[C@@H](Cc1ccc(-c2cc(F)c(F)cc2OC2CC2)c2c1CCCO2)C(=O)O)c1c(Cl)cccc1Cl` [Example 64, (S)-3-(8-(2-cyclopropoxy-4,5-difluorophenyl)chroman-5-yl)-2-(2,6-dichlorobenzamido)propanoic acid], the pEC50 was 6.96.

For `COc1cccc(OC)c1-c1ccc(CC(NC(=O)c2c(F)cc(NS(=O)(=O)c3ccc(-n4cncn4)cc3)cc2F)C(=O)O)c2c1CN(C)CC2` (stereo not shown) [Example 106, 2-(4-((4-(1H-1,2,4-triazol-1-yl)phenyl)sulfonamido)-2,6-difluorobenzamido)-3-(8-(2,6-dimethoxyphenyl)-2-methyl-1,2,3,4-tetrahydroisoquinolin-5-yl)propanoic acid], the pEC50 is 9.23.

With `Cc1c(-c2ccc(C[C@H](NC(=O)c3c(F)cccc3F)C(=O)O)c3c2OCCC3)c(=O)n(C)c2ccccc12` (single isomer, unassigned) [Example 58], the pEC50 was 8.59.

Turning to `COc1cc(C)n(C)c(=O)c1-c1ccc(C[C@H](NC(=O)c2c(F)cc(N3CCOC[C@@H]3C(F)(F)F)cc2F)C(=O)O)c2c1OCCC2` [Example 46, (S)-2-(2,6-difluoro-4-((R)-3-(trifluoromethyl)morpholino)benzamido)-3-(8-(4-methoxy-1,6-dimethyl-2-oxo-1,2-dihydropyridin-3-yl)chroman-5-yl)propanoic acid], the pEC50 is 9.60.

In the case of `Cc1cc(N2CCOC[C@@H]2C(F)(F)F)cc(F)c1C(=O)N[C@@H](Cc1ccc(-c2c(Cl)cc(C)n(C)c2=O)c2c1CCCO2)C(=O)O` (atropisomer, axis not shown) [Example 137], the pEC50 was 10.05.

Regarding `O=C(N[C@@H](Cc1ccc(-c2c(Cl)cc(F)cc2Cl)c2c1[C@@H]1C[C@@H]1CO2)C(=O)O)c1c(Cl)cccc1Cl` (single isomer, unassigned) [Example 82], the pEC50 was 7.38.

As for `CC[C@@H](Nc1cc(F)c(C(=O)N[C@@H](Cc2ccc(-c3c(C(F)(F)F)cc(C)n(C)c3=O)c3c2CN(C)CC3)C(=O)O)c(F)c1)C(F)(F)F` [Example 204], the pEC50 was 8.87.

In the case of `Cc1c(-c2ccc(C[C@H](NC(=O)c3c(F)cccc3F)C(=O)O)c3c2CCOC3)c(=O)n(C)c2ccc(F)cc12` [Example 35, (S)-2-(2,6-difluorobenzamido)-3-(5-(6-fluoro-1,4-dimethyl-2-oxo-1,2-dihydroquinolin-3-yl)isochroman-8-yl)propanoic acid], the pEC50 is 8.71.

As to `O=C(N[C@@H](Cc1ccc(-c2c(Cl)cc(F)cc2Cl)c2c1CCCN2)C(=O)O)c1c(F)cccc1F` [Example 101, (S)-3-(8-(2,6-dichloro-4-fluorophenyl)-1,2,3,4-tetrahydroquinolin-5-yl)-2-(2,6-difluorobenzamido)propanoic acid], the pEC50 was 7.57.

For the compound `CC[C@@H](Nc1cc(F)c(C(=O)N[C@@H](Cc2ccc(-c3c(C)n(C)c(=O)n(C)c3=O)c3c2COC3)C(=O)O)c(F)c1)C(F)(F)F` [Example 15, (S)-2-(2,6-difluoro-4-(((R)-1,1,1-trifluorobutan-2-yl)amino)benzamido)-3-(7-(1,3,6-trimethyl-2,4-dioxo-1,2,3,4-tetrahydropyrimidin-5-yl)-1,3-dihydroisobenzofuran-4-yl)propanoic acid], the pEC50 is 9.03.

Regarding `CC[C@@H](Nc1cc(F)c(C(=O)N[C@@H](Cc2ccc(-c3c(C)c4cc(F)ccc4n(C)c3=O)c3c2CCCO3)C(=O)O)c(F)c1)C(F)(F)F` [Example 33, (S)-2-(2,6-difluoro-4-(((R)-1,1,1-trifluorobutan-2-yl)amino)benzamido)-3-(8-(6-fluoro-1,4-dimethyl-2-oxo-1,2-dihydroquinolin-3-yl)chroman-5-yl)propanoic acid], the negative-log EC50 (pEC50) is 8.56.

As to `Cc1cc(N2CCOC[C@@H]2C(F)(F)F)cc(F)c1C(=O)N[C@@H](Cc1ccc(-c2nc(C)c(C)n(C)c2=O)c2c1OCCO2)C(=O)O` [Example 179], the pEC50 was 9.57.

Turning to `Cc1cc(N2CCC2)c(-c2ccc(C[C@H](NC(=O)c3c(F)cc(N4CCOC[C@@H]4C(F)(F)F)cc3F)C(=O)O)c3c2OCCC3)c(=O)n1C` (atropisomer, axis not shown) [Example 153], the pEC50 was 9.26.

Regarding `CC[C@@H](Nc1cc(F)c(C(=O)N[C@@H](Cc2ccc(-c3c(C)n(C)c(=O)n(C)c3=O)c3c2OCCO3)C(=O)O)c(F)c1)C(F)(F)F` [Example 10, (S)-2-(2,6-difluoro-4-(((R)-1,1,1-trifluorobutan-2-yl)amino)benzamido)-3-(8-(1,3,6-trimethyl-2,4-dioxo-1,2,3,4-tetrahydropyrimidin-5-yl)-2,3-dihydrobenzo[b][1,4]dioxin-5-yl)propanoic acid], the pEC50 was 9.06.

As to `Cc1ncc(-c2ccc(C[C@H](NC(=O)c3c(F)cc(N4CCOC[C@@H]4C(F)(F)F)cc3F)C(=O)O)c3c2OCCO3)c(=O)n1C` [Example 177], the pEC50 is 9.23.

With `COc1cc2ccccc2cc1-c1ccc(C[C@H](NC(=O)c2c(F)cccc2F)C(=O)O)c2c1OCCO2` [Example 11, (S)-2-(2,6-difluorobenzamido)-3-(8-(3-methoxynaphthalen-2-yl)-2,3-dihydrobenzo[b][1,4]dioxin-5-yl)propanoic acid], the pEC50 was 7.53.

For `CC[C@@H](Nc1cc(F)c(C(=O)N[C@@H](Cc2ccc(-c3c(OC)cc(C)n(C)c3=O)c3c2COC3)C(=O)O)c(F)c1)C(F)(F)F` [Example 23, (S)-2-(2,6-difluoro-4-(((R)-1,1,1-trifluorobutan-2-yl)amino)benzamido)-3-(7-(4-methoxy-1,6-dimethyl-2-oxo-1,2-dihydropyridin-3-yl)-1,3-dihydroisobenzofuran-4-yl) propanoic acid], the pEC50 was 9.16.

Take `O=C(N[C@@H](Cc1ccc(-c2c(Cl)cc(F)cc2Cl)c2c1OCCCO2)C(=O)O)c1c(Cl)cccc1Cl` [Example 97, (S)-3-(9-(2,6-dichloro-4-fluorophenyl)-3,4-dihydro-2H-benzo[b][1,4]dioxepin-6-yl)-2-(2,6-dichlorobenzamido)propanoic acid]: the pEC50 is 7.21.

`CC[C@@H](Nc1cc(F)c(C(=O)N[C@@H](Cc2ccc(-c3ncc(C)c(C)n3)c3c2COC3)C(=O)O)c(F)c1)C(F)(F)F` [Example 24, (S)-2-(2,6-difluoro-4-(((R)-1,1,1-trifluorobutan-2-yl)amino)benzamido)-3-(7-(4,5-dimethylpyrimidin-2-yl)-1,3-dihydroisobenzofuran-4-yl)propanoic acid]: the pEC50 was 7.00.

Turning to `Cc1cc(N2CCOC[C@@H]2C(F)(F)F)cc(F)c1C(=O)N[C@@H](Cc1ccc(-c2cc(C)c(C)n(C)c2=O)c2c1CCCO2)C(=O)O` [Example 155], the pEC50 was 9.45.
